Laboratory results taken from patent US9844550B2, “Phtalazinone derivatives and manufacturing process thereof” (ILDONG PHARM CO., LTD., priority 2013, dated 2017).

Experiments:
Solubility test in water = format: physicochemical; settings: 25° C., atmospheric pressure
Procedure: To evaluate the solubility, the invented compounds (I-159, I-161 and I-171) was determined as follows. The compounds was dissolve in water (1 mL, 10 mL and 100 mL) at 25° C. under an atmospheric pressure.

Mouse pharmacokinetics = format: in vivo; design: concentration or dose not given beside the values; settings: Balb/c male mice, blood samples 15 to 1140 min, LC-MS/MS
Procedure: To evaluate the pharmacokinetics test, the invented compounds (from I-25 to I-1171) were determined as follows. Blood samples are collected at 15, 30, 60, 120, 240, 480, 1140 min. Quantification is by using a LC-MS/MS method specific to the selected compound. Pharmacokinetics parameters are calculated using WinNonLinnon compartmental analysis software.

[1] = system: Capan-1 Human pancreatic cancer cells; experiment: In vivo antitumoral efficacy, Capan-1 subcutaneous xenograft; settings: Capan-1 xenograft in Balb/c nude mice
Procedure: To evaluate the in vivo antitumoral efficacy, the invented compounds (I-80˜171) was determined as a result to follows.
Capan-1 Human pancreatic cancer cells were established as subcutaneous xenografts by injection of 8×10^6 cells into the flanks of adult female Balb/c nude mice. Mice with established tumors (160-250 mm^3) were selected for study (n=6/treatment group). The test compounds were formulated in DW and administered orally (po) at a dose of 30˜200 mg/kg. The vehicle alone was administered to control groups. Animals were dosed 5 days per week (Monday through Friday) for 3 consecutive weeks.
Animals were weighed and tumor size was determined twice weekly by caliper measurements, and tumor volumes were calculated (volume=[…] (mm^3), where l and w refer to the larger and smaller dimensions collected at each measurement). The mean tumor volumes of each group were calculated. The change in mean treated tumor volume was divided by the change in mean control tumor volume, multiplied by 100 and subtracted from 100% to give the tumor growth inhibition for each group.

[2] = system: LNCaP prostate cancer cell line; experiment: Cell viability assay (LNCaP); format: cell-based; settings: Homo sapiens, 264 h; LNCaP cells, treated 11 days
Procedure: 4. Cell Viability Assay (LNCaP)
(§1) Cell viability assay was performed by using LNCaP cell line to measure cytotoxicity of compounds in the present invention. LNCaP prostate cancer cell line was seeded into 96-well plates at 37° C. under 5% CO2 atmosphere using RPMI-1640 (Hyclone) containing 10% FBS (Hyclone). After 24 hr incubation, cells were treated with the invented compounds at various concentrations for 11 days. The medium was changed every 3 to 4 day. 11 days later, A fluorescence reagent was used to determine the IC50 values.

[3] = system: Capan-1 pancreatic cancer cell line; experiment: Cell viability assay (Capan-1); format: cell-based; settings: Homo sapiens, 240 h; Capan-1 cells, treated 10 days
Procedure: 3. Cell Viability Assay (Capan-1)
as §1, with “Capan-1” for “LNCaP”, “Capan-1 pancreatic” for “LNCaP prostate”, “IMDM (Sigma)” for “RPMI-1640 (Hyclone)”, “10” for “11”, “After 7-day incubation, the” for “The”, “changed. 10” for “changed every 3 to 4 day. 11”

[4] = system: MDA-MB-436 breast cancer cell line; experiment: Cell viability assay (MDA-MB-436); format: cell-based; settings: Homo sapiens, 144 h; MDA-MB-436 cells, treated 6 days
Summary of the method: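 MDA-MB-436 breast cancer cells in DMEM/F12 with 10% FBS, treated 24 h after seeding with graded compound concentrations for 6 days at 37 °C, 5% CO2, medium changed every 3 days. Viability read with a fluorescence reagent; IC50 derived.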

Tankyrase-1 = target: T1, Tankyrase-1 (Homo sapiens, UniProt O95271); experiment: Tankyrase-1 enzyme assay; format: biochemical; settings: 1 hr at room temperature, chemiluminescent readout
T1 sequence (O95271 1-1327): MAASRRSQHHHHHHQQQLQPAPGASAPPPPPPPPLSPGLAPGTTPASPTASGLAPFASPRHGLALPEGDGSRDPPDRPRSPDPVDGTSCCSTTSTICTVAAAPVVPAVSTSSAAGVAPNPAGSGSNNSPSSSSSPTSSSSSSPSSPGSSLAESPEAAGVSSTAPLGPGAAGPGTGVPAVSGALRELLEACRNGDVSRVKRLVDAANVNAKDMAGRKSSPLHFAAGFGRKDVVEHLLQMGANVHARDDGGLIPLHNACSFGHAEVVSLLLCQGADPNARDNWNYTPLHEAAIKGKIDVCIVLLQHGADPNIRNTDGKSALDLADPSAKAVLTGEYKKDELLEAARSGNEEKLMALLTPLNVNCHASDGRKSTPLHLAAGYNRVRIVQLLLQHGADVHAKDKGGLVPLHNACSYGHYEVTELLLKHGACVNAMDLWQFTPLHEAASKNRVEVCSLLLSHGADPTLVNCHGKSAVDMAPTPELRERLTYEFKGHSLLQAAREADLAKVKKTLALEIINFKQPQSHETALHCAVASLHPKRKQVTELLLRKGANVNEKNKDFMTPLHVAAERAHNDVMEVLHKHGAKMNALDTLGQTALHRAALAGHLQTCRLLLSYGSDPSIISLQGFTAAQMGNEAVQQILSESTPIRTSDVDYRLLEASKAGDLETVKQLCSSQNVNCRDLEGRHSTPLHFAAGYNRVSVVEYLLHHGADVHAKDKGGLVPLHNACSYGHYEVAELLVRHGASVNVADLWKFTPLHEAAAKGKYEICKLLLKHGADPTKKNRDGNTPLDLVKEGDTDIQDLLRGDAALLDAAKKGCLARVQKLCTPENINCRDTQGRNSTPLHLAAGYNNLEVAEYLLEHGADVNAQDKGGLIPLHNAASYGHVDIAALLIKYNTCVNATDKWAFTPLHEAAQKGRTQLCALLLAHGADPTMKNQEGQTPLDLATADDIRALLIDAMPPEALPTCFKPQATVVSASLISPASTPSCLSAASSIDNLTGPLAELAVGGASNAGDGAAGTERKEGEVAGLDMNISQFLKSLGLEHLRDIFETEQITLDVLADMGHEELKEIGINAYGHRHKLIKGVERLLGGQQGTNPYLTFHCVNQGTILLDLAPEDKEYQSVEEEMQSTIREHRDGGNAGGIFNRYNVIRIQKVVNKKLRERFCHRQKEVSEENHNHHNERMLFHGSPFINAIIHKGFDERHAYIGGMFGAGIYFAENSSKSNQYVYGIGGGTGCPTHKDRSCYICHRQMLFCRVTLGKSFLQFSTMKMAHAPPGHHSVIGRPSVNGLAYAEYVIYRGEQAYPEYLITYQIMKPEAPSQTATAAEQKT
Procedure: 5. Tankyrase-1 Enzyme Assay
Tankyrase-1 enzyme assay was performed to determine Tankyrase-1 inhibitory activity of compounds in the present invention. The enzymatic reaction was conducted by coating the plate with substrates of tankyrase-1, and then the plate was washed. Compounds in the present invention serially diluted in DMSO were added to the reaction buffer activating tankyrase-1, and incubated for 1 hr at room temperature. After stopping the reaction, the plate was washed, and streptavidin-HRP was added to each well. IC50 was calculated by adding chemiluminescent substrate and immediately reading the sample in a microplate reader (Biotek).

CC(C)CNC1CN(C(=O)c2cc(Cc3n[nH]c(=O)c4ccccc34)ccc2F)C1.Cl [Compound I-161, 4-(4-fluoro-3-(3-(isobutylamino)azetidine-1-carbonyl)benzyl)phthalazin-1(2H)-one hydrochloride]
Solubility class in words (Solubility test in water): Sparingly soluble
AUC (Mouse pharmacokinetics): 1020 ng·h/mL

Cl.O=C(c1cc(Cc2n[nH]c(=O)c3ccccc23)ccc1F)N1CC(CNC2CC2)C1 [Compound I-171, 4-(3-(3-((cyclopropylamino)methyl)azetidine-1-carbonyl)-4-fluorobenzyl)phthalazin-1(2H)-one hydrochloride]
% TGI ([1]; 30 mg/kg po qd x 5, 3 consecutive weeks): 42.1%
% TGI ([1]; 60 mg/kg po qd x 5, 3 consecutive weeks): 69.7%
Solubility class in words (Solubility test in water): Sparingly soluble
AUC (Mouse pharmacokinetics): 673 ng·h/mL

CC(C)NC1CN(C(=O)c2cc(Cc3n[nH]c(=O)c4ccccc34)ccc2F)C1.Cl [Compound I-159, 4-(4-fluoro-3-(3-(isopropylamino)azetidine-1-carbonyl)benzyl)phthalazin-1(2H)-one hydrochloride]
% TGI ([1]; 100 mg/kg po qd x 5, 3 consecutive weeks): 59.4%
% TGI ([1]; 200 mg/kg po qd x 5, 3 consecutive weeks): 69.4%
Solubility class in words (Solubility test in water): Sparingly soluble
AUC (Mouse pharmacokinetics): 472 ng·h/mL

O=C(c1cc(Cc2n[nH]c(=O)c3ccccc23)ccc1F)N1CC(NCC2CC2)C1 [Compound I-33, 4-(3-(3-((cyclopropylmethyl)amino)azetidine-1-carbonyl)-4-fluorobenzyl)phthalazin-1(2H)-one]
IC50 [2]: 300 to 1000 nM
IC50 [3]: 300 to 1000 nM
IC50 [4]: ≤ 5 nM
IC50 (Tankyrase-1): > 1000 nM
AUC (Mouse pharmacokinetics): 1020 ng·h/mL
